Source: patent US4110327A, “2,3 Diketo-piperazinocarbonylamino alkanoic acids and derivatives” (Toyama Chemical Co., Ltd., priority 1974, dated 1978)
Values after ≈ are worked out from the molar mass of the structure shown.

What was measured:
Salmonella typhi = experiment: MIC against clinical isolates; format: cell-based; settings: unit assumed
Escherichia coli = experiment: MIC against clinical isolates; format: cell-based; settings: unit assumed
Proteus morganii = experiment: MIC against clinical isolates; format: cell-based; settings: clinical isolate, unit assumed
β-lactamase = experiment: Resistant activity against β-lactamase, iodometric assay; format: biochemical, Pseudomonas aeruginosa GN 238; settings: relative to Potassium Penicillin G = 100
Experimental: (3) Resistant activity against β-lactamase, Pseudomonas aergionan GN 238:
The resistant activity of each compound against β-lactamase was measured in the manner described below.
β-Lactamase was prepared from Pseudomonas aeruginosa GN 238. This microorganism was cultured in 100 ml of a medium containing 2 g of yeast extract, 10 g of polypeptone, 2 g of glucose, 7 g of disodium hydrogen phosphate, 2 g of potassium dihydrogen phosphate, 1.2 g of ammonium sulfate and 0.4 g of magnesium sulfate, per liter, in a 500-ml Erlenmeyer flask for 6 hrs. at 37° C with shaking. The resulting cells were collected by centrifugation (5,000 r.p.m. × 10 min.), washed three times with 0.1 M phosphate buffer (pH 7.0). Subsequently, the cells were subjected to sonication (20 KHz, 20 min.) and then centrifuged at 15,000 r.p.m. for 60 min. By using the supernatant of enzyme fluid, the resistance of each compound against β-lactamase was determined by the iodometric assay method. Each numeral shown in Table 7 is a relative activity value calculated by assuming as 100 the activity of the control Potassium Penicillin G.

[1] = tested on: Staphylococcus aureus 209p; experiment: MIC against standard strain, plate method; format: cell-based; settings: unit assumed
Method in brief: (§1)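 Plate-method MIC. Medium: heart infusion agar, pH 7.4. Inoculum: 10^4 cells per plate (10^6 cells/ml).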

Klebsiella pneumoniae [2] = experiment: MIC against standard strain, plate method; format: cell-based; settings: unit assumed
Method in brief: as §1

Proteus vulgaris 3027 = experiment: MIC against standard strain, plate method; format: cell-based; settings: Proteus vulgaris 3027, standard strain; unit assumed
Method in brief: as §1

Escherichia coli NIHJ = experiment: MIC against standard strain, plate method; format: cell-based; settings: unit assumed
Method in brief: as §1

[3] = tested on: Pseudomonas aeruginosa I.F.O.; experiment: MIC against standard strain, plate method; format: cell-based; settings: unit assumed
Method in brief: as §1

Klebsiella pneumoniae [4] = experiment: MIC against clinical isolates; format: cell-based; settings: unit assumed
Staphylococcus aureus = experiment: MIC against clinical isolates; format: cell-based; settings: unit assumed
Proteus vulgaris = experiment: MIC against clinical isolates; format: cell-based; settings: clinical isolate, unit assumed
Proteus rettgeri = experiment: MIC against clinical isolates; format: cell-based; settings: clinical isolate, unit assumed
Salmonella typhi-murium = experiment: MIC against clinical isolates; format: cell-based; settings: unit assumed
Proteus mirabilis = experiment: MIC against clinical isolates; format: cell-based; settings: clinical isolate, unit assumed
Shigella sonnei = experiment: MIC against clinical isolates; format: cell-based; settings: unit assumed
Experimental: (§2) The minimum inhibitory concentrations (MIC) was determined by the plate method disclosed in "Chemotherapy" (Japan), Vol. 16, (1968), pages 98 - 99. The culture medium used was a Heart infusion agar (pH 7.4). The number of the cells per plate used in the inoculum as 10^4 (10^6 cells/ml).
(§3) MIC was determined in the same manner as in the preceding paragraph (1).

Shigella flexneri = experiment: MIC against clinical isolates; format: cell-based; settings: unit assumed
Experimental: as §2, §3

Pseudomonas aeruginosa = experiment: MIC against clinical isolates; format: cell-based; settings: unit assumed
[5] = clinical isolate GN (number not given; Table 5-3)

## CCCCCCCCN1CCN(C(=O)N[C@@H](C(=O)N[C@@H]2C(=O)N3[C@@H]2SC(C)(C)[C@@H]3C(=O)O)c2ccccc2)C(=O)C1=O (single isomer, unassigned) [compound 47]
Salmonella typhi; clinical isolate SL 819
  MIC: 3.13 µg/mL (≈ 5.2 µM)
Salmonella typhi; clinical isolate SL 2169
  MIC: 1.57 µg/mL (≈ 2.61 µM)
Escherichia coli; clinical isolate GN 3435
  MIC: 0.79 µg/mL (≈ 1.31 µM)
Escherichia coli; clinical isolate GN 3465
  MIC: 6.25 µg/mL (≈ 10.4 µM)
Escherichia coli; clinical isolate GN 3611
  MIC: > 200 µg/mL
Escherichia coli; clinical isolate K-3
  MIC: 100 µg/mL (≈ 166 µM)
Escherichia coli; clinical isolate K-4
  MIC: 0.79 µg/mL (≈ 1.31 µM)
Proteus morganii
  MIC: < 0.4 µg/mL
β-lactamase
  Relative activity: 1%
[1]
  MIC: < 1.57 µg/mL
Klebsiella pneumoniae [2]
  MIC: < 1.57 µg/mL
Proteus vulgaris 3027
  MIC: < 1.57 µg/mL
Escherichia coli NIHJ
  MIC: < 1.57 µg/mL
[3]
  MIC: 6.25 µg/mL (≈ 10.4 µM)
Klebsiella pneumoniae [4]; clinical isolate GN 4081
  MIC: 12.5 µg/mL (≈ 20.8 µM)
Klebsiella pneumoniae [4]; clinical isolate GN 4117
  MIC: 12.5 µg/mL (≈ 20.8 µM)
Staphylococcus aureus; clinical isolate F-1
  MIC: 6.25 µg/mL (≈ 10.4 µM)
Staphylococcus aureus; clinical isolate F-4
  MIC: 12.5 µg/mL (≈ 20.8 µM)
Staphylococcus aureus; clinical isolate F-5
  MIC: > 200 µg/mL
Staphylococcus aureus; clinical isolate MS 8619
  MIC: < 0.4 µg/mL
Staphylococcus aureus; clinical isolate MS 8713
  MIC: 6.25 µg/mL (≈ 10.4 µM)
Proteus vulgaris
  MIC: < 0.4 µg/mL
Proteus rettgeri
  MIC: 0.79 µg/mL (≈ 1.31 µM)
Salmonella typhi-murium; clinical isolate SL 858
  MIC: < 0.4 µg/mL
Salmonella typhi-murium; clinical isolate SL 2136
  MIC: 50 µg/mL (≈ 83.1 µM)
Proteus mirabilis
  MIC: < 0.4 µg/mL
Shigella sonnei; clinical isolate JS 11232
  MIC: 6.25 µg/mL (≈ 10.4 µM)
Shigella sonnei; clinical isolate JS 11755
  MIC: 0.79 µg/mL (≈ 1.31 µM)
Shigella flexneri; clinical isolate JS 11215
  MIC: 6.25 µg/mL (≈ 10.4 µM)
Pseudomonas aeruginosa; clinical isolate GN 82
  MIC: 12.5 µg/mL (≈ 20.8 µM)
Pseudomonas aeruginosa; clinical isolate GN 163
  MIC: 12.5 µg/mL (≈ 20.8 µM)
Pseudomonas aeruginosa; clinical isolate GN 221
  MIC: 25 µg/mL (≈ 41.5 µM)
Pseudomonas aeruginosa; clinical isolate GN 376
  MIC: 50 µg/mL (≈ 83.1 µM)
Pseudomonas aeruginosa; clinical isolate GN 383
  MIC: 25 µg/mL (≈ 41.5 µM)
Pseudomonas aeruginosa; clinical isolate GN 1035
  MIC: 25 µg/mL (≈ 41.5 µM)
Pseudomonas aeruginosa; clinical isolate GN 1091
  MIC: 12.5 µg/mL (≈ 20.8 µM)
Pseudomonas aeruginosa; clinical isolate GN 2565
  MIC: 25 µg/mL (≈ 41.5 µM)
Pseudomonas aeruginosa; clinical isolate GN 2987
  MIC: 12.5 µg/mL (≈ 20.8 µM)
Pseudomonas aeruginosa; [5]
  MIC: 25 µg/mL (≈ 41.5 µM)
Pseudomonas aeruginosa; clinical isolate S-1
  MIC: 50 µg/mL (≈ 83.1 µM)
Pseudomonas aeruginosa; clinical isolate S-2
  MIC: 50 µg/mL (≈ 83.1 µM)
Pseudomonas aeruginosa; clinical isolate S-3
  MIC: 50 µg/mL (≈ 83.1 µM)
Pseudomonas aeruginosa; clinical isolate S-4
  MIC: 50 µg/mL (≈ 83.1 µM)

## CCCCN1CCN(C(=O)N[C@@H](C(=O)N[C@@H]2C(=O)N3[C@@H]2SC(C)(C)[C@@H]3C(=O)O)c2ccccc2)C(=O)C1=O (single isomer, unassigned) [compound 39]
Salmonella typhi; clinical isolate SL 819
  MIC: 0.79 µg/mL (≈ 1.45 µM)
Salmonella typhi; clinical isolate SL 2169
  MIC: 0.79 µg/mL (≈ 1.45 µM)
Escherichia coli; clinical isolate GN 3435
  MIC: 0.79 µg/mL (≈ 1.45 µM)
Escherichia coli; clinical isolate GN 3452
  MIC: 0.79 µg/mL (≈ 1.45 µM)
Escherichia coli; clinical isolate GN 3465
  MIC: 25 µg/mL (≈ 45.8 µM)
Escherichia coli; clinical isolate GN 3481
  MIC: 1.57 µg/mL (≈ 2.88 µM)
Escherichia coli; clinical isolate GN 3611
  MIC: > 200 µg/mL
Escherichia coli; clinical isolate K-1
  MIC: 1.57 µg/mL (≈ 2.88 µM)
Escherichia coli; clinical isolate K-2
  MIC: 1.57 µg/mL (≈ 2.88 µM)
Escherichia coli; clinical isolate K-3
  MIC: > 200 µg/mL
Escherichia coli; clinical isolate K-4
  MIC: 0.79 µg/mL (≈ 1.45 µM)
Proteus morganii
  MIC: < 0.4 µg/mL
β-lactamase
  Relative activity: 15%
[1]
  MIC: 0.4 µg/mL (≈ 0.733 µM)
Klebsiella pneumoniae [2]
  MIC: 1.57 µg/mL (≈ 2.88 µM)
Proteus vulgaris 3027
  MIC: 0.4 µg/mL (≈ 0.733 µM)
Escherichia coli NIHJ
  MIC: < 0.1 µg/mL
[3]
  MIC: 6.25 µg/mL (≈ 11.5 µM)
Klebsiella pneumoniae [4]; clinical isolate GN 917
  MIC: 1.57 µg/mL (≈ 2.88 µM)
Klebsiella pneumoniae [4]; clinical isolate GN 3850
  MIC: 3.13 µg/mL (≈ 5.74 µM)
Klebsiella pneumoniae [4]; clinical isolate GN 4081
  MIC: 25 µg/mL (≈ 45.8 µM)
Klebsiella pneumoniae [4]; clinical isolate GN 4117
  MIC: 25 µg/mL (≈ 45.8 µM)
Staphylococcus aureus; clinical isolate F-1
  MIC: 6.25 µg/mL (≈ 11.5 µM)
Staphylococcus aureus; clinical isolate F-2
  MIC: 1.57 µg/mL (≈ 2.88 µM)
Staphylococcus aureus; clinical isolate F-3
  MIC: 1.57 µg/mL (≈ 2.88 µM)
Staphylococcus aureus; clinical isolate F-4
  MIC: 6.25 µg/mL (≈ 11.5 µM)
Staphylococcus aureus; clinical isolate F-5
  MIC: > 200 µg/mL
Staphylococcus aureus; clinical isolate MS 8588
  MIC: 1.57 µg/mL (≈ 2.88 µM)
Staphylococcus aureus; clinical isolate MS 8596
  MIC: 1.57 µg/mL (≈ 2.88 µM)
Staphylococcus aureus; clinical isolate MS 8619
  MIC: 0.79 µg/mL (≈ 1.45 µM)
Staphylococcus aureus; clinical isolate MS 8684
  MIC: 3.13 µg/mL (≈ 5.74 µM)
Staphylococcus aureus; clinical isolate MS 8713
  MIC: 3.13 µg/mL (≈ 5.74 µM)
Proteus vulgaris
  MIC: < 0.4 µg/mL
Proteus rettgeri
  MIC: 6.25 µg/mL (≈ 11.5 µM)
Salmonella typhi-murium; clinical isolate SL 858
  MIC: 0.79 µg/mL (≈ 1.45 µM)
Salmonella typhi-murium; clinical isolate SL 2136
  MIC: 100 µg/mL (≈ 183 µM)
Proteus mirabilis
  MIC: < 0.4 µg/mL
Shigella sonnei; clinical isolate JS 11232
  MIC: 25 µg/mL (≈ 45.8 µM)
Shigella sonnei; clinical isolate JS 11755
  MIC: 1.57 µg/mL (≈ 2.88 µM)
Shigella flexneri; clinical isolate JS 11215
  MIC: 25 µg/mL (≈ 45.8 µM)
Shigella flexneri; clinical isolate JS 11839
  MIC: 0.79 µg/mL (≈ 1.45 µM)
Pseudomonas aeruginosa; clinical isolate GN 82
  MIC: 3.13 µg/mL (≈ 5.74 µM)
Pseudomonas aeruginosa; clinical isolate GN 163
  MIC: 3.13 µg/mL (≈ 5.74 µM)
Pseudomonas aeruginosa; clinical isolate GN 221
  MIC: 3.13 µg/mL (≈ 5.74 µM)
Pseudomonas aeruginosa; clinical isolate GN 376
  MIC: 6.25 µg/mL (≈ 11.5 µM)
Pseudomonas aeruginosa; clinical isolate GN 383
  MIC: 6.25 µg/mL (≈ 11.5 µM)
Pseudomonas aeruginosa; clinical isolate GN 1035
  MIC: 12.5 µg/mL (≈ 22.9 µM)
Pseudomonas aeruginosa; clinical isolate GN 1091
  MIC: 3.13 µg/mL (≈ 5.74 µM)
Pseudomonas aeruginosa; clinical isolate GN 2565
  MIC: 12.5 µg/mL (≈ 22.9 µM)
Pseudomonas aeruginosa; clinical isolate GN 2987
  MIC: 3.13 µg/mL (≈ 5.74 µM)
Pseudomonas aeruginosa; [5]
  MIC: 6.25 µg/mL (≈ 11.5 µM)
Pseudomonas aeruginosa; clinical isolate S-1
  MIC: 12.5 µg/mL (≈ 22.9 µM)
Pseudomonas aeruginosa; clinical isolate S-2
  MIC: 12.5 µg/mL (≈ 22.9 µM)
Pseudomonas aeruginosa; clinical isolate S-3
  MIC: 25 µg/mL (≈ 45.8 µM)
Pseudomonas aeruginosa; clinical isolate S-4
  MIC: 12.5 µg/mL (≈ 22.9 µM)
